Measured values reported in patent publication US20250344734A1, “UNSATURATED FATTY ACIDS AND THEIR USE TO MODIFY TASTE” (Firmenich Incorporated, priority 2022, published 2025).

Tests used:
Assay type in all cases: cell-based
Details in all cases: unsaturated fatty acid concentration of 200 µM, cells stimulated with known bitter agonist
[1] = molecular target: T1, T2R07 (TAS2R07) (Homo sapiens, UniProt Q9NYW3); assay: FLIPR calcium assay, block of bitter agonist response, T2R07
T1 construct: expressed in transfected cells; host or cells: cells expressing a promiscuous G protein (e.g., G16g44)
T1 sequence (Q9NYW3 1-318): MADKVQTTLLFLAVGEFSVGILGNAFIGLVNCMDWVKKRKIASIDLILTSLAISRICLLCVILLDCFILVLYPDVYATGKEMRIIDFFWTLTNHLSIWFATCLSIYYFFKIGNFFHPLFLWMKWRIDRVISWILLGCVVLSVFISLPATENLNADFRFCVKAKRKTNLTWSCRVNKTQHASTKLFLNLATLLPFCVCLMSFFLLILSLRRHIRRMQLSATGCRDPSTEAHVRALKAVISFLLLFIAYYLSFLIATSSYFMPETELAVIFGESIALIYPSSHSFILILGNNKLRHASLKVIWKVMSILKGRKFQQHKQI
Experimental: (§1) Cells expressing a promiscuous […] (e.g., G16g44) were transfected with vectors encoding 18 functional bitter receptor cDNAs, with one receptor per transfection. The cells were transfected directly in 384-well format high-density plates and incubated for 28 hours. Later, cells were loaded with the Ca-specific dye Fluo4-AM. After an incubation of 60 minutes, excess dye is washed off, and cells are stimulated with a known bitter agonist for each receptor and various unsaturated fatty acids. Changes in intracellular fluorescence are recorded using a FLIPR instrument. Bitter antagonists and corresponding receptors are identified based on percentage inhibition of agonist's activity on a given receptor.
(§2) The above protocol was carried out using 16 different unsaturated fatty acids. A particular T2R receptor was identified as being antagonized by a particular unsaturated fatty acid if it triggered a >25% block of agonist's cellular response at 200 μM concentration of unsaturated fatty acid. […] Table 2 indicates the sixteen (16) compounds tested by their compound number from Table 1 above. The 18 bitter taste receptors screened are the human bitter taste receptors we named. […]

[2] = molecular target: T2, T2R71 (TAS2R41) (Homo sapiens, UniProt P59536); assay: FLIPR calcium assay, block of bitter agonist response, T2R71
T2 construct: expressed in transfected cells; host or cells: cells expressing a promiscuous G protein (e.g., G16g44)
T2 sequence (P59536 1-307): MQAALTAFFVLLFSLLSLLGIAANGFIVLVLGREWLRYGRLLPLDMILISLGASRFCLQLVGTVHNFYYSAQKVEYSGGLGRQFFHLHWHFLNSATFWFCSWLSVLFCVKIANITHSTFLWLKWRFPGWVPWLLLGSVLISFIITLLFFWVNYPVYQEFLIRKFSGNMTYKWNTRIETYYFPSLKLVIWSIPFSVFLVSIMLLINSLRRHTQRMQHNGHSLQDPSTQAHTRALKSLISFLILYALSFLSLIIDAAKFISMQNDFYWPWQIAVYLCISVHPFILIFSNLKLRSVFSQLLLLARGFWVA
Experimental: as §1, §2

[3] = molecular target: T3, T2R61 (TAS2R43) (Homo sapiens, UniProt P59537); assay: FLIPR calcium assay, block of bitter agonist response, T2R61
T3 construct: expressed in transfected cells; host or cells: cells expressing a promiscuous G protein (e.g., G16g44)
T3 sequence (P59537 1-309): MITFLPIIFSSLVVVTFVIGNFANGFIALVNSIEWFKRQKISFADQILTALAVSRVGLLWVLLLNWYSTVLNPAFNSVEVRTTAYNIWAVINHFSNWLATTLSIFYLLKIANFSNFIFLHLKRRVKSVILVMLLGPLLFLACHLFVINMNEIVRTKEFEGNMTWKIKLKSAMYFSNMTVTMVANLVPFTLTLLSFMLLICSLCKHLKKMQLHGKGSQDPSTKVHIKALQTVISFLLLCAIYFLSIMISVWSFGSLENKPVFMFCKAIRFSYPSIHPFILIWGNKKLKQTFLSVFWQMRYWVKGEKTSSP
Experimental: as §1, §2

[4] = molecular target: T4, T2R54 (TAS2R39 (Homo sapiens, UniProt P59534)); assay: FLIPR calcium assay, block of bitter agonist response, T2R54
T4 construct: expressed in transfected cells; host or cells: cells expressing a promiscuous G protein (e.g., G16g44)
T4 sequence (P59534 1-338): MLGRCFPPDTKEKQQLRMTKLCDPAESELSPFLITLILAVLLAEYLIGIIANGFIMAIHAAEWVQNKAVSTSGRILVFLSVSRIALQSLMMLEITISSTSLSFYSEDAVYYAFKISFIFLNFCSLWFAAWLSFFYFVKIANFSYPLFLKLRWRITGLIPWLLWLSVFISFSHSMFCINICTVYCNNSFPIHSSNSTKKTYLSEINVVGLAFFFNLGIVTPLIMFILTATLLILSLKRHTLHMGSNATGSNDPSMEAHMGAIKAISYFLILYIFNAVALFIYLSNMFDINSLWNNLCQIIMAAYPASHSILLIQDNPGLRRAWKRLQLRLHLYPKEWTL
Experimental: as §1
The above protocol was carried out using 16 different unsaturated fatty acids. A particular T2R receptor was identified as being antagonized by a particular unsaturated fatty acid if it triggered a >25% block of agonist's cellular response at 200 μM concentration of unsaturated fatty acid. […] Table 2 indicates the sixteen (16) compounds tested by their compound number from Table 1 above. The 18 bitter taste receptors screened are the human bitter taste receptors we named. T2R01 (TAS2R01), T2R03 (TAS2R03), T2R04 (TAS2R04), T2R07 (TAS2R07), T2R08 (TAS2R08), T2R09 (TAS2R09), T2R10 (TAS2R10), T2R13 (TAS2R13), T2R14 (TAS2R14), T2R16 (TAS2R16), T2R54 (TAS2R39, T2R61 (TAS2R43), T2R63 (TA2R20), T2R64 (TAS2R31), T2R65 (TAS2R19), T2R67 (TAS2R50), T2R71 (TAS2R41), and T2R75 (TAS2R46). The corresponding IUPHAR nomenclature for each receptor is given in parenthesis. In Table 2, these receptors are identified by the last two digits. For example, T2R01 is indicated as 01. Table 2 reports the percentage block of cellular response over baseline at an unsaturated fatty acid concentration of 200 µM.

[5] = molecular target: T5, T2R03 (TAS2R03) (Homo sapiens, UniProt Q9NYW6); assay: FLIPR calcium assay, block of bitter agonist response, T2R03
T5 construct: expressed in transfected cells; host or cells: cells expressing a promiscuous G protein (e.g., G16g44)
T5 sequence (Q9NYW6 1-316): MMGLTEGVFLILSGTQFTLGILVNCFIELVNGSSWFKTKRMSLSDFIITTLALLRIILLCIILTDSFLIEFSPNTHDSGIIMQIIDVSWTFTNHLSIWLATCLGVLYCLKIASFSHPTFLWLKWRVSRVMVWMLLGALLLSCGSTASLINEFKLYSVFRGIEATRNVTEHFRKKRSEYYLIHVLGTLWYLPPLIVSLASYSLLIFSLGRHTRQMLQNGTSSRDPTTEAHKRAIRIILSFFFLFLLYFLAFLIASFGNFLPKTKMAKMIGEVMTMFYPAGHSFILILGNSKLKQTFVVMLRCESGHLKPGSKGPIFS
Experimental: as §1, §2

- percentage block of cellular response over baseline, 07 [1]: >90%
- percentage block of cellular response over baseline, 71 [2]: 30%
- percentage block of cellular response over baseline, 61 [3]: >90%
- percentage block of cellular response over baseline, 54 [4]: 90%
- percentage block of cellular response over baseline, 03 [5]: >45%
SMILES: CC(C)=CCC/C(C)=C/C(=O)O [Compound 129]
